According to paper PMC13224100, “Esterase-Responsive Mitochondria-Targeted Hydropersulfide Donors Mitigate Doxorubicin Cardiotoxicity While Preserving Anticancer Activity” (Angewandte Chemie (International ed. in English), 2025):
Several values for one entry are separate records, joined by “and”; a condition that tells them apart may be missing. Identical values can stand only once.

Legend:
[1] = test system: porcine liver esterase (PLE); experiment: Esterase-mediated RSSH release kinetics with HPE-IAM trapping (UPLC-MS); format: biochemical; details: precursor 25 μM, PLE 1 U mL^−1, HPE-IAM 250 μM, ammonium bicarbonate pH 7.4, DTPA, 37 °C; for half-life at 25 µM: pig, porcine liver esterase, read-out: t1/2 (min) Precursor consumption
Method: We then assessed esterase-mediated activation of AST-2 by incubating it with porcine liver esterase (PLE) in the presence of β-(4-hydroxyphenyl)ethyl iodoacetamide (HPE-IAM, 10 equiv), a trapping agent for RSSH.[39] We anticipated that PLE-catalyzed hydrolysis would release RSSH, which would subsequently be trapped by HPE-IAM to generate RSS-HPE-AM (Figure 1a). […] In addition, a minor amount of dialkyl trisulfide formation is observed (Figures 1b and S5), which we attribute to the reaction of the released RSSH with the precursor AST-2.
Figure 1. a) Schematic of esterase-mediated RSSH release from AST-2 in the presence of the trapping agent HPE-IAM. b) Representative UPLC-MS traces showing time-dependent conversion of AST-2 (25 μM) to RSS-HPE-AM upon treatment with porcine liver esterase (1 U mL^−1) and HPE-IAM (250 μM) in 100 mM ammonium bicarbonate buffer (pH 7.4) containing the metal chelator diethylenetriaminepentaacetic acid (DTPA) (100 μM) at 37 °C. Aliquots were quenched with formic acid and analyzed by UPLC-MS. […] Rate constants and half-lives are reported as mean ± SD (n = 3). Curves represent best fits to single-exponential functions.
Figure 2. a) Reaction scheme showing esterase-triggered RSSH release from APT-1 via a two-step activation involving deacetylation and intramolecular cyclization. b) Representative UPLC-MS traces showing the time-dependent conversion of APT-1 (25 μM) to intermediate 1 and subsequent formation of RSS-HPE-AM in the presence of PLE (1 U mL^−1) and HPE-IAM (250 μM) at 37 °C. Asterisk indicates a minor impurity in the blank control. […] Rate constants and half-lives are reported as mean ± SD (n = 3). Curves represent best fits to single exponential functions as described in the text.
B. Kinetics of RSSH Generation.
Kinetics of RSSH generation were conducted as previously described.[5] Stock solutions of RSSH […]
precursor (10 mM in DMSO), HPE-IAM (100mM in DMSO), and porcine liver esterase (PLE, 2000 U/mL in ammonium bicarbonate buffer) were freshly prepared. RSSH precursors (25 μM) were […]
then immediately incubated with HPE-IAM (250 μM) and PLE (1 U/mL, from Sigma-Aldrich, […]
E3019-20KU, ≥ 15 U/mg protein) in ammonium bicarbonate buffer (100 mM, pH 7.4) containing diethylenetriaminepentaacetic acid (DTPA, 100 μM) at 37 °C. At the indicated time points, 500 μL […]
aliquots were withdrawn, quenched with concentrated formic acid (5 μL, […]), and […]
ultracentrifuged at 12,500 rpm for 5 min. The resulting supernatants were diluted with acetonitrile […]
(200 μL supernatant + 300 μL of acetonitrile) and analyzed by UPLC–MS using a Waters Acquity […]
(MSe, 10 scans/s). Chromatographic separation was performed on a C18 reverse-phase column […]
(Waters Acquity BEH C18, 2.1 × 50 mm, 1.7 μm) at 4 °C, with a flow rate of 0.3 mL/min and the […]
following gradient (v/v; water containing 0.1% formic acid as solvent A, acetonitrile as solvent B):
B; 8.5–10 min, return to 100% A. The injection volume was 5 μL. Mass spectral data were […]
processed using MassLynx 4.1, and extracted ion chromatograms (EICs) corresponding to the […]
exact masses of the RSSH precursor, intermediate, and the trapped product (RSS–HPE-AM) […]
were integrated to quantify substrate consumption and product formation. Kinetic data were fitted […]
to a single exponential curve using Origin. All experiments were performed in triplicate (n = 3), […]
and results are reported as mean ± standard deviation (SD).
HRMS Data for Compounds Formed during RSSH Generation from AST-2 […]
Figure S2. HRMS of the peak eluting at 5.6 min corresponding to AST-2.
Esterase-mediated hydrolysis of AST-2-TPP monitored by UPLC-MS […]
Figure S11. (A) Representative UPLC-MS traces showing esterase-mediated hydrolysis of AST-2-TPP (25 […]
μM) in the presence of HPE-IAM (250 μM) in ammonium bicarbonate buffer (pH 7.4, 100 mM) containing […]
the metal chelator DTPA (100 μM) at 37 °C. […]

[2] = test system: H9c2 cells; experiment: Cytotoxicity of RSSH donors, CCK-8 assay; format: cell-based; details: up to 200 μM, 24 h
Method: We evaluated the cytoprotective effects of RSSH precursors against DOX-induced cardiotoxicity in H9c2 cardiomyoblasts. First, we assessed the cytotoxicity of the RSSH donors (AST-2, APT-1, AST-2-TPP, and APT-1-TPP) using the CCK-8 assay.[24] […] To evaluate cytoprotection, H9c2 cells were pretreated with RSSH donors for 4 h, followed by 24 h co-treatment with DOX (5 μM). As expected, DOX alone reduced cell viability to ca. 50% (Figure 4a). […] Although both compounds were protective, […]. […] A distinctive feature of our study is the direct comparison between mitochondria-targeted and non-targeted RSSH donors. […] TPP conjugation only modestly enhances the cytoprotective effects of RSSH donors under our experimental conditions. This outcome may reflect the intrinsic high efficacy of non-targeted RSSH donors, thereby limiting the additional benefit of mitochondrial targeting. […]
Cytotoxicity Assessment of Hydropersulfide Precursors in H9c2 and HepG2 cells Cell viability was measured using the Cell Counting Kit-8 (CCK-8, Dojindo).[7] H9c2 cardiomyoblast and HepG2 cells were seeded at a density of 8 × 10³ cells/well in a 96-well plate (flat-bottom, tissue culture-treated). […] All treatments were prepared with a final DMSO concentration of <0.01%. In the vehicle control group, cells were treated with medium (DMEM with 10% FBS) containing 0.01% DMSO only. Cells were incubated with RSSH donors for an additional 24 h. After 24 h, cells were gently washed three times with PBS, pH 7.4. […] The plates were then incubated for 1-2 h before measuring absorbance at 450 nm using a plate reader […]
calculated as: % Viability = 100 × [Abs₄₅₀ (treated cells) / Abs₄₅₀ (vehicle control)]. Each treatment condition was performed in 6 technical replicates per biological replicate, and the experiment was independently repeated three times (n = 3 biological replicates). Data are presented as mean ±
(1 picture or pasted object on this page, not shown here)
Figure S23. Impact of (A) AST-2 or AST-2-TPP (0-200 µM) and (B) APT-1 (0-200 µM) or APT -1-TPP (0-200 µM) on H9c2 cardiomyocytes. Impact of (C) AST-2 or AST-2-TPP (0-200 µM) and (D) APT-1 (0-200 µM) or APT-1-TPP (0-200 µM) on HepG2 (liver cancer) cells. Results are expressed as mean ± SEM, n≥3; *P<0.05, **P<0.01, ***P<0.001, ****P<0.0001. Ctl = vehicle (medium with 0.01% DMSO) treated cells. […]

SMILES | half-life at 25 µM [1] | first-order rate constant k (k1) of precursor consumption / deacetylation [1] | first-order rate constant k (k2) of RSS-HPE-AM formation (RSSH release) [1] | cytotoxicity of donor alone [2]
CC(=O)NC(C(=O)N(C)CCC[P+](c1ccccc1)(c1ccccc1)c1ccccc1)C(C)(C)SSC(=O)N(C)CCOC(C)=O (stereo not shown) [APT-1-TPP] | 5.2 ± 0.2 min | 0.1338 ± 0.0049 min⁻¹ and 0.134 ± 0.005 min⁻¹ | 0.0056 ± 0.0004 min⁻¹ | no measurable toxicity
COC(=O)C(NC(C)=O)C(C)(C)SSC(=O)N(C)CCOC(C)=O (stereo not shown) [APT-1] | 17.1 ± 0.4 min | 0.0406 ± 0.0010 min⁻¹ | 0.0067 ± 0.0006 min⁻¹ | no measurable toxicity
COC(=O)SSC(C)(C)C(NC(C)=O)C(=O)N(C)CCC[P+](c1ccccc1)(c1ccccc1)c1ccccc1 (stereo not shown) [AST-2-TPP] | 20.7 ± 0.6 min | 0.0335 ± 0.0010 min⁻¹ | 0.03467 ± 0.0028 min⁻¹ and 0.0347 ± 0.0028 min⁻¹ | no measurable toxicity
COC(=O)SSC(C)(C)C(NC(C)=O)C(=O)OC (stereo not shown) [AST-2] | 50.1 ± 1.8 min | 0.0139 ± 0.0005 min⁻¹ | 0.0144 ± 0.0006 min⁻¹ | no measurable toxicity
